Series [1] can be described thus: Intestinal-specific parallel artificial membrane permeability assay (PAMPA-GI). Format: in vitro ADME. The settings on record: for Papp at 4 h, 500 µM: PAMPA, read-out: PAMPA-GI Pe; for Papp at 4 h, 500 µM / PAMPA-GI MR (membrane retention): gradient pH system (pH donor 6.5 → pH acceptor 7.4) after 4 h, at 37 °C, mean ± S.E.M, n = 3; for Intestinal-specific permeability (Pe), category in words: PAMPA-GI. The method in brief:
(§1)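 Kinetic solubility: filtrates quantified by HPLC-DAD-MS against 5–500 μM calibration, target concentration 500 μM. PAMPA-GI: pH 6.5 phosphate donor, pH 7.4 PBS/5% DMSO acceptor, phosphatidylcholine/cholesterol 2:1 in dodecane membrane, 4 h at 37 °C; Pe and membrane retention calculated from HPLC-DAD-MS concentrations.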
(In general: The PAMPA barrier holds no transporters, so it reflects passive diffusion.)

Series [2] in a line: Kinetic aqueous solubility. The settings on record: for solubility kinetic at 2 h: phosphate buffered saline with 5% DMSO, aqueous with cosolvent or surfactant or cyclodextrin, kinetic from dmso stock, after 2 h, at 37 °C in PBS, pH 7.4, 5% DMSO, target concentration 500 μM, mean ± S.E.M, n = 3; for Kinetic aqueous solubility, category in words: PBS pH 7.4, 37 °C, 2 h. The series is classed as physicochemical. Put shortly:
as §1

The subject of another series is MDA-MB-231 cells. In words: MTT antiproliferative assay, MDA-MB-231. The series is classed as cell-based, human. As to conditions: for inhibition at 10 µM / inhibition at 30 µM: Homo sapiens, 72 h, values <20% considered negligible, read-out: Growth inhibition (%) ± SEM, MDA-MB-231; for inhibition at 10 µM: MDA-MB-231, 10 μM; for inhibition at 30 µM: MDA-MB-231, 30 μM; for Antiproliferative effect / selectivity on MDA-MB-231, in words: 10 and 30 μM. The method in brief:
(§2)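 MTT, 72 h exposure; test conc. 10 μM and 30 μM; 5000 cells/well, o/n pre-incubation; EMEM/10% FBS, 37 °C, 5% CO2; A545 nm readout.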

A further series has as its system HeLa cells. In words: MTT antiproliferative assay, HeLa. Format: cell-based, human. As to conditions: for inhibition at 10 µM / inhibition at 30 µM: Homo sapiens, HeLa, 72 h, values <20% considered negligible, read-out: Growth inhibition (%) ± SEM, HeLa; for Antiproliferative effect on HeLa, in words: 10 and 30 μM. The method in brief:
as §2
Background: Formazan colour is commonly taken as a measure of viable cells.

The test system of another series is SiHa cells. In words: MTT antiproliferative assay, SiHa. The series is classed as cell-based, human. The settings on record: for inhibition at 10 µM / inhibition at 30 µM: Homo sapiens, SiHa, 72 h, values <20% considered negligible, read-out: Growth inhibition (%) ± SEM, SiHa. Put shortly:
as §2

A further series relates to MCF-7 cells. As to the kind of experiment: MTT antiproliferative assay, MCF-7. The series is classed as cell-based, human. The settings on record: for inhibition at 10 µM / inhibition at 30 µM: Homo sapiens, 72 h, values <20% considered negligible, read-out: Growth inhibition (%) ± SEM, MCF-7; for inhibition at 10 µM: MCF7, 10 μM; for inhibition at 30 µM: MCF7, 30 μM; for Antiproliferative effect / selectivity on MCF-7, in words: 10 and 30 μM. The method in brief:
as §2

In a further series the test system is A2780 cells. In words: MTT antiproliferative assay, A2780. As to conditions: for inhibition at 10 µM / inhibition at 30 µM: Homo sapiens, 72 h, values <20% considered negligible, read-out: Growth inhibition (%) ± SEM, A2780; for inhibition at 10 µM: A2780, 10 μM; for inhibition at 30 µM: A2780, 30 μM. The series is classed as cell-based, human. The method in brief: as §2

SMILES strings stand for the structures. Converted amounts (≈) assume the structure as drawn. “Also recorded” adds a separate entry of the source. Bounds are passed on as bounds.

`COC(=O)[C@]1(C)CCC[C@@]2(C)C3CC[C@]4(O)C[C@@]3(CCC21)[C@@H](O)[C@]4(O)CNCc1ccccc1` (stereo partly drawn) [Compound 5, (4R,6aR,7R,8R,9S,11bS)-Methyl 8-((Benzylamino)methyl)-7,8,9-trihydroxy-4,11b-dimethyltetradecahydro-6a,9-methanocyclohepta[a]naphthalene-4-carboxylate] displayed a melting point of 119 to 122 °C. Besides, in series [1], the Papp at 4 h, 500 µM came to 0.64 ± 0.03 ×10⁻⁶ cm/s and the “PAMPA-GI MR (membrane retention)” value was 29.8 ± 0.3%. For the same molecule, the solubility (kinetic) at 2 h in series [2] is 291 ± 35.5 µM (≈ 137 µg/mL). Besides, in the series with MDA-MB-231 cells, the inhibition at 10 µM worked out at 34.6 ± 2.98% and the inhibition at 30 µM amounted to 95.8 ± 0.63%. Moreover, in the series with HeLa cells, the inhibition at 10 µM was less than 20% and the inhibition at 30 µM came out at 95.77 ± 0.26%. In the series with SiHa cells, the inhibition at 10 µM was less than 20% and the inhibition at 30 µM was less than 20%. In addition, in the series on MCF-7 cells, the inhibition at 10 µM came to 59.6 ± 2.73% and the inhibition at 30 µM came to 96.42 ± 0.27%. Besides, in the series on A2780 cells, the inhibition at 10 µM turned out to be 30.4 ± 2.48% and the inhibition at 30 µM was found to be 97.15 ± 0.21%.
As for `COC(=O)[C@]1(C)CCC[C@@]2(C)C3CC[C@]4(O)C[C@@]3(CCC21)[C@@H](O)[C@]4(O)CN(C)Cc1ccccc1` (stereo partly drawn) [Compound 6, (4R,6aR,7R,8R,9S,11bS)-Methyl 8-((Benzyl(methyl)amino)methyl)-7,8,9-trihydroxy-4,11b-dimethyltetradecahydro-6a,9-methanocyclohepta[a]naphthalene-4-carboxylate], the melting point lay in the range of 162 to 166 °C. For the same molecule, in series [1], the Papp at 4 h, 500 µM amounted to 0.23 ± 0.08 ×10⁻⁶ cm/s and the “PAMPA-GI MR (membrane retention)” value is recorded as 67.3 ± 8.6%. For the same molecule, the kinetic solubility at 2 h in series [2] worked out at 114 ± 16 µM (≈ 55.5 µg/mL). In the series with MDA-MB-231 cells, the “Antiproliferative effect / selectivity on MDA-MB-231, in words” value is “slight selectivity”; the inhibition at 10 µM was less than 20%; the inhibition at 30 µM is 82.56 ± 0.69%. Moreover, in the series on HeLa cells, the inhibition at 10 µM was less than 20% and the inhibition at 30 µM is less than 20%. Also, in the series on SiHa cells, the inhibition at 10 µM is less than 20% and the inhibition at 30 µM is less than 20%. In the series with MCF-7 cells, the inhibition at 10 µM was less than 20% and the inhibition at 30 µM was determined as 51.7 ± 2.54%. For the same molecule, in the series on A2780 cells, the inhibition at 10 µM came to 25.7 ± 2.7% and the inhibition at 30 µM came to 63.7 ± 1.98%.
The molecule `COC(=O)[C@]1(C)CCC[C@@]2(C)C3CC[C@]4(O)C[C@@]3(CCC21)[C@@H](O)[C@]4(O)CNCc1ccc(F)cc1` (stereo partly drawn) [Compound 9, (4R,6aR,7R,8R,9S,11bS)-Methyl 8-(((4-Fluorobenzyl)amino)methyl)-7,8,9-trihydroxy-4,11b-dimethyltetradecahydro-6a,9-methanocyclohepta[a]naphthalene-4-carboxylate] gave a melting point of 195 to 197 °C. Also, in series [1], the Papp at 4 h, 500 µM was 0.4 ± 0.04 ×10⁻⁶ cm/s and the “PAMPA-GI MR (membrane retention)” value stood at 63.8 ± 4.9%. In series [2], the “Kinetic aqueous solubility, category in words” value is recorded as “moderate” and the solubility (kinetic) at 2 h is 42.1 ± 10.8 µM (≈ 20.6 µg/mL). In the series with MDA-MB-231 cells, the “Antiproliferative effect / selectivity on MDA-MB-231, in words” value is reported as “decent activity; also recorded: smaller but also selective antiproliferative effect”; the inhibition at 10 µM is 83 ± 1.71%; the inhibition at 30 µM came out at 93.63 ± 0.36%. Moreover, in the series on HeLa cells, the inhibition at 10 µM turned out to be 42.5 ± 1.42% and the inhibition at 30 µM turned out to be 96.8 ± 0.74%. In addition, the “Antiproliferative effect on SiHa, in words” value in the series with SiHa cells (10 and 30 μM) is “modest inhibition”. In the series on SiHa cells, the inhibition at 10 µM amounted to 54.6 ± 3.42% and the inhibition at 30 µM amounted to 95.17 ± 0.37%. Besides, in the series with MCF-7 cells, the “Antiproliferative effect / selectivity on MCF-7, in words” value is “strong and selective antiproliferative effect; also recorded: performed best”; the inhibition at 10 µM turned out to be 96.4 ± 0.47%; the inhibition at 30 µM is 96.19 ± 0.65%. Moreover, in the series on A2780 cells, the inhibition at 10 µM was 45.6 ± 3.13% and the inhibition at 30 µM worked out at 96.97 ± 0.29%.
Molecule `CC[C@@H](NC[C@@]1(O)[C@H](O)[C@@]23CCC4[C@@](C)(CCC[C@@]4(C)C(=O)OC)C2CC[C@]1(O)C3)c1ccccc1` (stereo partly drawn) [Compound 15, (4R,6aR,7R,8R,9S,11bS)-Methyl 7,8,9-Trihydroxy-4,11b-dimethyl-8-((((R)-1-phenylpropyl)amino)methyl)tetradecahydro-6a,9-methanocyclohepta[a]naphthalene-4-carboxylate] yielded a melting point of 138 to 141 °C. Moreover, in series [1], the “Intestinal-specific permeability (Pe), category in words” value is reported as “poor permeability”; the Papp at 4 h, 500 µM is 0.14 ± 0.04 ×10⁻⁶ cm/s; the “PAMPA-GI MR (membrane retention)” value is given as 46.8 ± 3.3%. The molecule further yielded a kinetic solubility at 2 h in series [2] of 145 ± 28.2 µM (≈ 72.5 µg/mL). Also, in the series on MDA-MB-231 cells, the “Antiproliferative effect / selectivity on MDA-MB-231, in words” value was “decent activity; also recorded: smaller but also selective antiproliferative effect”; the inhibition at 10 µM is 68.3 ± 2.86%; the inhibition at 30 µM stood at 95.63 ± 0.45%. Further, in the series with HeLa cells, the “Antiproliferative effect on HeLa, in words” value is reported as “modest inhibition”; the inhibition at 10 µM amounted to 63.6 ± 1.54%; the inhibition at 30 µM was 97.25 ± 0.5%. In addition, in the series on SiHa cells, the inhibition at 10 µM came out at 22.4 ± 1.42% and the inhibition at 30 µM stood at 95.67 ± 0.76%. Moreover, in the series with MCF-7 cells, the “Antiproliferative effect / selectivity on MCF-7, in words” value was “strong and selective antiproliferative effect; also recorded: performed best”; the inhibition at 10 µM stood at 91 ± 1.52%; the inhibition at 30 µM was 96.47 ± 0.26%. Also, in the series on A2780 cells (10 and 30 μM), the “Antiproliferative effect on A2780, in words” value is on record as “modest inhibition”. In the series with A2780 cells, the inhibition at 10 µM came out at 50 ± 2.99% and the inhibition at 30 µM was found to be 96.64 ± 0.24%.
`CC[C@H](NC[C@@]1(O)[C@H](O)[C@@]23CCC4[C@@](C)(CCC[C@@]4(C)C(=O)OC)C2CC[C@]1(O)C3)c1ccccc1` (stereo partly drawn) [Compound 16, (4R,6aR,7R,8R,9S,11bS)-Methyl 7,8,9-Trihydroxy-4,11b-dimethyl-8-((((S)-1-phenylpropyl)amino)methyl)tetradecahydro-6a,9-methanocyclohepta[a]naphthalene-4-carboxylate] showed a melting point of 140 to 143 °C. Further, in series [1], the “Intestinal-specific permeability (Pe), category in words” value is “poor permeability”; the Papp at 4 h, 500 µM amounted to 0.25 ± 0.09 ×10⁻⁶ cm/s; the “PAMPA-GI MR (membrane retention)” value was 44.6 ± 4.2%. In series [2], the “Kinetic aqueous solubility, category in words” value is reported as “moderate” and the solubility (kinetic) at 2 h came to 89.9 ± 8.5 µM (≈ 44.9 µg/mL). In the series on MDA-MB-231 cells, the inhibition at 10 µM amounted to 39.3 ± 1.99% and the inhibition at 30 µM worked out at 96.65 ± 0.37%. In addition, in the series on HeLa cells, the “Antiproliferative effect on HeLa, in words” value is recorded as “moderate inhibition”; the inhibition at 10 µM was determined as 53.5 ± 1.99%; the inhibition at 30 µM was found to be 98.33 ± 0.32%. Besides, in the series with SiHa cells, the inhibition at 10 µM is less than 20% and the inhibition at 30 µM is 96.73 ± 0.65%. In the series on MCF-7 cells, the “Antiproliferative effect / selectivity on MCF-7, in words” value was “higher selectivity; also recorded: performed best”; the inhibition at 10 µM is 80.7 ± 2.37%; the inhibition at 30 µM came to 97.1 ± 0.23%. In the series on A2780 cells, the inhibition at 10 µM amounted to 48.3 ± 2.17% and the inhibition at 30 µM worked out at 96.99 ± 0.19%.

In general, solubility (kinetic) refers to the concentration staying in solution when a stock, usually in DMSO, is diluted into the medium. The term inhibition denotes the percentage by which the read-out fell short of the control. One may read the melting point as the temperature of the solid-liquid transition.

The values are drawn from PMC9861858, “Stereoselective Synthesis and Antiproliferative Activities of Tetrafunctional Diterpene Steviol Derivatives” (International Journal of Molecular Sciences, 2023).
